Reference: patent US20020052503A1, “Substituted benzolactam compounds as substance p antagonists” (priority 1995, published 2002)

Molecular target: T1, substance P receptor sites in human IM-9 cells (Homo sapiens, UniProt P25103)
T1 construct: endogenous in cells; host or cells: human IM-9 cells (whole cells)
Test: IM-9 binding assay (inhibition of [^3H]SP binding)
Conditions: [^3H]SP binding to human IM-9 cells
Method: The activity of the compounds of the present invention, as substance P antagonists, is determined by their ability to inhibit the binding of substance P at its 30 receptor sites in CHO-cells which reveal NK1 receptor or IM-9 cells employing radioactive ligands. The substance P antagonist activity of the herein described compounds is evaluated by using the standard assay procedure described by D. G. Payan et al., as reported in the The Journal of Immunology . 133, 3260 (1984). This method essentially involves determining the concentration of the individual compound required to reduce by 50% the amount of radiolabelled substance P ligands at their receptor sites in said isolated cow tissues or IM-9 cells, thereby affording characteristic IC50 values for each compound tested. More specifically, inhibition of [^3H]SP binding to human IM-9 cells by compounds are determined in assay buffer (50 mM Tris-HCl (pH 7.4), 1 mM MnCl2, 0.02% bovine serum albumin, bacitracin (40 μg/ml), leupeptin (4 μg/ml), chymostatin (2 μg/ml) and phosphoramidon (30 μg/ml)). […] Nonspecific binding is defined as the radioactivity remaining in the presence of 1 μM SP. The filters are placed into tubes and counted using liquid scintillation counter.

T1 sequence (P25103 whole entry): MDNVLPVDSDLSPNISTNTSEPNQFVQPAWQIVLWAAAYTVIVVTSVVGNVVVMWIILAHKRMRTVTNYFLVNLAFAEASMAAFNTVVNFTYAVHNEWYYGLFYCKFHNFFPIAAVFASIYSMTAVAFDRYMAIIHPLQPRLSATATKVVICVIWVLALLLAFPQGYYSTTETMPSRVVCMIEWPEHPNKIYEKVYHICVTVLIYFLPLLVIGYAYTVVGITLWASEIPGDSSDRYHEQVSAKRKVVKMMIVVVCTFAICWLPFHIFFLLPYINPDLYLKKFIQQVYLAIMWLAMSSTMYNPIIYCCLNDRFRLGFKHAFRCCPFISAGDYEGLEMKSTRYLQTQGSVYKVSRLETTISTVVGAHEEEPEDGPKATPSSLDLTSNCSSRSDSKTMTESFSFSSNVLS

| SMILES | IC50 |
| --- | --- |
| COc1cc2c(cc1CN[C@H]1CCCN[C@H]1c1ccccc1)N(C)C(=O)CC2.Cl.Cl [Compound 21, (2S,3S)-3-(6-Methoxy-1-methyl-2-oxo-1,2,3,4-tetrahydroquinolin-7-yl)methylamino-2-phenylpiperidine dihydrochloride] | < 0.0001 µM |

Test system: [Sar^9, Met(O2)^11]substance P-induced hind paw tapping in gerbils
Test: [Sar^9, Met(O2)^11]substance P-induced tapping test
Assay type: in vivo, gerbil
Conditions: Meriones unguiculatus, % inhibition at 0.3 mg/kg scoring
Method: The activity of the compounds of this invention against CNS disorder is determined by [Sar^9, Met(O2)^11]substance P-induced tapping test in gerbils. More specifically, gerbils are lightly anesthetized with ether and the skull surface is exposed. [Sar^9, Met(O2)^11]substance P or vehicle (5 μl) are administered directly into the lateral ventricles via a 25 gauge needle inserted 3.5 mm below lambda. Following injection, gerbils are placed in 2 l beaker individually and monitored for repetitive hind paw tapping. Some compounds prepared in the following Examples were tested in accordance with these testing methods.

| SMILES | inhibition at 0.3 mg/kg |
| --- | --- |
| COc1cc2c(cc1CN[C@H]1CCCN[C@H]1c1ccccc1)N(C)C(=O)CC2.Cl.Cl [Compound 21, (2S,3S)-3-(6-Methoxy-1-methyl-2-oxo-1,2,3,4-tetrahydroquinolin-7-yl)methylamino-2-phenylpiperidine dihydrochloride] | 52% |

Molecular target: T2, Ca^2+ channel in rat heart membrane preparation (Rattus norvegicus, UniProt P22002)
T2 construct: from tissue; host or cells: rat heart membrane preparation
T2 sequence (P22002 whole entry, other chains not shown): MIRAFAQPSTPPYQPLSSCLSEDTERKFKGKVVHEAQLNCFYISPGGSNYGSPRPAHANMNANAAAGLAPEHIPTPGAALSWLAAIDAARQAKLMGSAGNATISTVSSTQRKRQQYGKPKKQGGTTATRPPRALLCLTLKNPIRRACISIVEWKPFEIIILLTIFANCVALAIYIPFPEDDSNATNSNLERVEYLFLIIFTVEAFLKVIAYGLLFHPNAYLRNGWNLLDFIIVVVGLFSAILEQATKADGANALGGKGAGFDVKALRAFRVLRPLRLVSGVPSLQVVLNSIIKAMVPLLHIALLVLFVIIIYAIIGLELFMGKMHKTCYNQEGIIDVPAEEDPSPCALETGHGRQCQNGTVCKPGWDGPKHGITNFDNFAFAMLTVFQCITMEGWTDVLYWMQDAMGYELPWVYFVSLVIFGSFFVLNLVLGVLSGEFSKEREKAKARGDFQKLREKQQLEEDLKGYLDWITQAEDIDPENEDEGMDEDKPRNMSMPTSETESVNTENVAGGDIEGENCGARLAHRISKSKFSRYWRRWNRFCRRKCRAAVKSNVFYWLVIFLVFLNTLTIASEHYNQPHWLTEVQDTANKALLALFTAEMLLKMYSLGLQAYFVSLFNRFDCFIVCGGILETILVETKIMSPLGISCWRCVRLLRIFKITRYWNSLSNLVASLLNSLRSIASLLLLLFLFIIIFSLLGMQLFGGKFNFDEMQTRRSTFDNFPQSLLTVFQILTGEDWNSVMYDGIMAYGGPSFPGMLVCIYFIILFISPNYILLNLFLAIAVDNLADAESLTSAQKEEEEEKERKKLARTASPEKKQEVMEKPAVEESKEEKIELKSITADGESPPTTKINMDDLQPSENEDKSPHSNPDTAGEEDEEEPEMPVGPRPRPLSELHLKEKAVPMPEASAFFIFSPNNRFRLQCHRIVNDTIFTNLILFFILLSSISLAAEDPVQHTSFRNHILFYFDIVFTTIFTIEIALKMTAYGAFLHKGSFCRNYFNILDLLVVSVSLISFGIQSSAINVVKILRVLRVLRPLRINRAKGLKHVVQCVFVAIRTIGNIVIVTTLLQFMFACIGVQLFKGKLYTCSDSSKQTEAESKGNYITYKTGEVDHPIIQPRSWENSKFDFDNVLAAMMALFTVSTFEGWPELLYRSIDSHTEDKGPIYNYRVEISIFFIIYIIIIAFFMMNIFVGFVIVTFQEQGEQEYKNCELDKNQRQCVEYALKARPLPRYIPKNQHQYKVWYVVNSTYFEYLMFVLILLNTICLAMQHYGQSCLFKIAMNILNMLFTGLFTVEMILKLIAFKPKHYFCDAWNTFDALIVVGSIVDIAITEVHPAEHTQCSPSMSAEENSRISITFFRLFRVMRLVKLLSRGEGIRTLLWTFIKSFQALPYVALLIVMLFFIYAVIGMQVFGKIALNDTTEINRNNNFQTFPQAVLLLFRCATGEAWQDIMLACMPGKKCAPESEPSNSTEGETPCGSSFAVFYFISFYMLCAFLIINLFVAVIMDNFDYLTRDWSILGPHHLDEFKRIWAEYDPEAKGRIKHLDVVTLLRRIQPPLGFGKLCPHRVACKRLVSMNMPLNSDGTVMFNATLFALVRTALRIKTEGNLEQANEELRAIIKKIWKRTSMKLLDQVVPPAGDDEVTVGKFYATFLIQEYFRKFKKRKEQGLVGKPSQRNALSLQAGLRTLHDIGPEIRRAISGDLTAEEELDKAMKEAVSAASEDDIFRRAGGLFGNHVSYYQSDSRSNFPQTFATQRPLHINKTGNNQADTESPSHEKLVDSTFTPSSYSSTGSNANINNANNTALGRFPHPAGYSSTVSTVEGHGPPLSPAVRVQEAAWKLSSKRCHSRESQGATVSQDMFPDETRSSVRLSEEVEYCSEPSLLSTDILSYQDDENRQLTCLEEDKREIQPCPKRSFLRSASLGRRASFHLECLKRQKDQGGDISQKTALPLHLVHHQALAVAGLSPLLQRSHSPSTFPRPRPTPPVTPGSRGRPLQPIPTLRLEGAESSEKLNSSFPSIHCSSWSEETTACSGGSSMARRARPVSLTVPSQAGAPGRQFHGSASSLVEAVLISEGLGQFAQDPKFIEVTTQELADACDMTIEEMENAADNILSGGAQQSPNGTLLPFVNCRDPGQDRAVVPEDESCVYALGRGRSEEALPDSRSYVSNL
T2 sequence (P54290 25-944 partner limits assumed, other chains not shown): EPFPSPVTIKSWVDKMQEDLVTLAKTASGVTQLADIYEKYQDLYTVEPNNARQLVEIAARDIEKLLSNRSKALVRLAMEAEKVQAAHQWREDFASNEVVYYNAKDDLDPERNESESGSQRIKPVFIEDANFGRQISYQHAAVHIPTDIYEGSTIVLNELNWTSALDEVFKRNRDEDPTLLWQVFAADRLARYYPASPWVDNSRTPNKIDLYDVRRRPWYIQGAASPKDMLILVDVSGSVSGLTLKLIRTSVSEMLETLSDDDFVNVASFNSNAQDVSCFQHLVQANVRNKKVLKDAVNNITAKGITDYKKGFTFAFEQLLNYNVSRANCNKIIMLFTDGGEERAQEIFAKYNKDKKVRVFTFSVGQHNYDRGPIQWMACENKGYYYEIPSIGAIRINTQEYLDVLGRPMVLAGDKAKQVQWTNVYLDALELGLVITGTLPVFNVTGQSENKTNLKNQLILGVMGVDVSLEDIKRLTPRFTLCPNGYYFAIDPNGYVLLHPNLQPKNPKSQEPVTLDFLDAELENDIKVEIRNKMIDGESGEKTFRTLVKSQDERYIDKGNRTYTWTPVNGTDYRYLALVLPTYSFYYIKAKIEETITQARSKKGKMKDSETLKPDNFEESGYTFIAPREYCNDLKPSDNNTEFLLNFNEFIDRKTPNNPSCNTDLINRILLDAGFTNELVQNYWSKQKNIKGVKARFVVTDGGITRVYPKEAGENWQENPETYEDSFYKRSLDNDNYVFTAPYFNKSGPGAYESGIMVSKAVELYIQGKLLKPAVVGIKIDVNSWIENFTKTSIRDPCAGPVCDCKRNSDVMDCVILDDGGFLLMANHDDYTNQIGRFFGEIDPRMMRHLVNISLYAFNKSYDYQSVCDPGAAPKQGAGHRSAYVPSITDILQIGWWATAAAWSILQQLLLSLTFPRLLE
T2 sequence (P54290 945-1091 partner limits assumed, other chains not shown): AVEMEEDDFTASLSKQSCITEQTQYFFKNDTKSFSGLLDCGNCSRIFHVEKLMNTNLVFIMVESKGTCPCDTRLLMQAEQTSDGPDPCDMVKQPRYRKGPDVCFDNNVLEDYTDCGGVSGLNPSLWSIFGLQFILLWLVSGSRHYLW
Test: verapamil binding study ([^3H]desmethoxyverapamil)
Conditions: read-out: verapamil binding study (Ca^2+ channel binding affinity)
Method: The adverse effect on Ca^2+ channel binding affinity is determined by verapamil binding study in rat heart membrane preparation. More specifically, verapamil binding study is performed as previously described by Reynolds et al., (J. Pharmacol. Exp. Ther. 237, 731, 1986). Briefly, incubations are initiated by the addition of tissue to tubes containing 0.25 nM [^3H]desmethoxyverapamil and various concentrations of compounds (total volume; 1 ml). Nonspecific binding is defined as radioligand binding remaining in the presence of 3-10 μM methoxyverapamil.

| SMILES | IC50 |
| --- | --- |
| COc1cc2c(cc1CN[C@H]1CCCN[C@H]1c1ccccc1)N(C)C(=O)CC2.Cl.Cl [Compound 21, (2S,3S)-3-(6-Methoxy-1-methyl-2-oxo-1,2,3,4-tetrahydroquinolin-7-yl)methylamino-2-phenylpiperidine dihydrochloride] | > 3 µM |

Test system: not given
Test: not given
Conditions: not given

| SMILES | melting point |
| --- | --- |
| COc1cc2c(cc1CN[C@H]1CCCN[C@H]1c1ccccc1)CCC(=O)N2C.Cl.Cl | 243 to 244 °C |
| COc1cc2c(cc1CN[C@H]1C3CCN(CC3)[C@H]1C(c1ccccc1)c1ccccc1)N(C)C(=O)CC2 | 136 to 139 °C |
| CN1C(=O)CCc2cc(OCC(F)(F)F)c(CN[C@H]3CCCN[C@H]3c3ccccc3)cc21.Cl.Cl | 239 to 240 °C |
| COc1cc2c(cc1CN[C@H]1CCCN[C@H]1c1ccccc1)N(C(C)C)C(=O)CC2.Cl.Cl | 257 to 260 °C |
| COc1cc2c(cc1CN[C@H]1CCCN[C@H]1c1ccccc1)CCC(=S)N2C.Cl.Cl | 219 to 221 °C |
| COc1cc2c(cc1CN[C@H]1CCCN[C@H]1c1ccccc1)N(C)C(=S)CC2.Cl.Cl | 245 to 246 °C |
| CN1C(=O)CCc2cc(OC(F)F)c(CN[C@H]3CCCN[C@H]3c3ccccc3)cc21.Cl.Cl | 238 to 240 °C |
| COc1cc2c(cc1CN[C@H]1CCCN[C@H]1c1ccccc1)N(C)C(=O)SC2.Cl.Cl | 252 to 254 °C |
| COc1cc2c(cc1CN[C@H]1CCCN[C@H]1c1ccccc1)N(C)C(=O)OC2.Cl.Cl | 235 to 237 °C |
| COc1cc2c(cc1CN[C@H]1CCCN[C@H]1c1ccccc1)N(C)C(=O)CCC2.Cl.Cl | 236 to 238 °C |
| COc1cc2c(cc1CN[C@H]1CCCN[C@H]1c1ccccc1)N(C)C(=O)CC2.Cl.Cl [Compound 21, (2S,3S)-3-(6-Methoxy-1-methyl-2-oxo-1,2,3,4-tetrahydroquinolin-7-yl)methylamino-2-phenylpiperidine dihydrochloride] | 265 to 268 °C |
| COc1cc2ccc(=O)n(C)c2cc1CN[C@H]1C2CCN(CC2)[C@H]1C(c1ccccc1)c1ccccc1 | 125 to 128 °C |
| COc1cc2c(cc1CN[C@H]1CCCN[C@H]1c1ccccc1)C(C(F)(F)F)CC(=O)N2C.Cl.Cl (stereo partly drawn) | 225 to 256 °C |
| COc1cc2ccc(=O)n(C)c2cc1CN[C@H]1CCCN[C@H]1c1ccccc1.Cl.Cl | 260 to 263 °C |
| COc1cc2c(cc1CN[C@H]1CCCN[C@H]1c1ccccc1)C(C)(C)C(=S)N2C.Cl.Cl | 234 to 236 °C |
